Experimental data reported in BindingDB's records for doi:10.1021/jm960248s (Smithkline Beecham Pharmaceuticals, 1996).

Biological target: fMet-Leu-Phe receptor (Homo sapiens) (UniProt P21462)
Assay: Inhibitory concentration against fMLP receptor with [3H]- fMLP in receptor binding assay

Chain of fMet-Leu-Phe receptor (Homo sapiens) (P21462 whole entry, looked up): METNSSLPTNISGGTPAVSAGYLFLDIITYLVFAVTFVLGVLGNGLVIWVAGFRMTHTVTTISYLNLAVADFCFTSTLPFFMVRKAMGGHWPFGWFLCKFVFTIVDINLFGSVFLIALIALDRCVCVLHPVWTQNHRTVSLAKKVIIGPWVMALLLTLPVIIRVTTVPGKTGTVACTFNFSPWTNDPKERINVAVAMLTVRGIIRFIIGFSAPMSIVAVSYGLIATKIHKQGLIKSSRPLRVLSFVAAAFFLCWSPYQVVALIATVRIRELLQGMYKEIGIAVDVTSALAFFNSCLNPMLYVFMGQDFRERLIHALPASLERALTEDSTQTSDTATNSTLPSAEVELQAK

O=C(O)/C=C/c1nc(CSc2c(Cl)cccc2Cl)ccc1OCCc1ccccc1 [Ticolubant]
IC50: 3.25 µM
